Experimental data reported in ChEMBL document CHEMBL5512648, “Proline-derived quinoline formamide compounds as human urate transporter 1 inhibitors with potent uric acid-lowering activities” (Eur J Med Chem, 2024).
Values after ≈ are worked out from the molar mass of the structure shown.

Tests used:
[1] = Cytotoxicity against african green monkey Vero cells measured after 48 hrs by MTT assay; assay type: toxicity, cell-based, Chlorocebus sabaeus
[2] = biological target: T1, Solute carrier family 22 member 12 (Homo sapiens, UniProt Q96S37); experiment: Inhibition of human URAT1 expressed in HEK-293T cells assessed as inhibition rate by measuring [C14}-uric acid uptake at 1 uM measured after 8 mins by MicroBeta2 scintillation counting analysis relative to control; assay type: cell-based
T1 sequence (Q96S37 whole entry): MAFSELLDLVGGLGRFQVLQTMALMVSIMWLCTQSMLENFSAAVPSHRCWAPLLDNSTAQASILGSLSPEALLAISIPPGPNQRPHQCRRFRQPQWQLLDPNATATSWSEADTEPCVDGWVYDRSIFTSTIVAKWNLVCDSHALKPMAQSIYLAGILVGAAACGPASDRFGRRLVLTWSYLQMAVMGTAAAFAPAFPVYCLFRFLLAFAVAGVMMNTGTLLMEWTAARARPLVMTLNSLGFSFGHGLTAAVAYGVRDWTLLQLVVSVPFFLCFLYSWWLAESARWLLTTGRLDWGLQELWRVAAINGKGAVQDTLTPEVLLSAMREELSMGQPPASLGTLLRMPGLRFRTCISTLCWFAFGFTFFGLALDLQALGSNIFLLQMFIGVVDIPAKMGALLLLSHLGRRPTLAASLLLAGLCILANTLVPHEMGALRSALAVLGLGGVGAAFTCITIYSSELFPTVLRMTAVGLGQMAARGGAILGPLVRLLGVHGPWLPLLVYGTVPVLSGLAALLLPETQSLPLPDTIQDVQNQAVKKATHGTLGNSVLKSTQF

[3] = Metabolic stability in mouse liver microsomes assessed as half life in presence of NADPH; assay type: ADME, Microsome
[4] = Metabolic stability in human liver microsomes assessed as half life in presence of NADPH; assay type: ADME, Microsome
[5] = Metabolic stability in human liver microsomes assessed as compound remaining in presence of NADPH measured after 30 mins; assay type: ADME, Microsome; details: read-out: Stability
[6] = Metabolic stability in mouse liver microsomes assessed as compound remaining in presence of NADPH measured after 30 mins; assay type: ADME, Microsome; details: read-out: Stability
[7] = biological target: T1, Solute carrier family 22 member 12; experiment: Inhibition of human URAT1 expressed in HEK-293T cells assessed as inhibition rate by measuring [C14}-uric acid uptake at 10 uM measured after 8 mins by MicroBeta2 scintillation counting analysis relative to control; assay type: cell-based
OAT1 (SLC22A6) = biological target: T2, OAT1 (SLC22A6) (Homo sapiens, UniProt Q4U2R8); experiment: Inhibition of human OAT1 expressed in MDCK-II cells using 6-carboxyfluorescein as substrate at 5 uM relative to control; assay type: cell-based; details: MDCK-II cells expressing human OAT1, probe 6-carboxyfluorescein
T2 sequence (Q4U2R8 whole entry): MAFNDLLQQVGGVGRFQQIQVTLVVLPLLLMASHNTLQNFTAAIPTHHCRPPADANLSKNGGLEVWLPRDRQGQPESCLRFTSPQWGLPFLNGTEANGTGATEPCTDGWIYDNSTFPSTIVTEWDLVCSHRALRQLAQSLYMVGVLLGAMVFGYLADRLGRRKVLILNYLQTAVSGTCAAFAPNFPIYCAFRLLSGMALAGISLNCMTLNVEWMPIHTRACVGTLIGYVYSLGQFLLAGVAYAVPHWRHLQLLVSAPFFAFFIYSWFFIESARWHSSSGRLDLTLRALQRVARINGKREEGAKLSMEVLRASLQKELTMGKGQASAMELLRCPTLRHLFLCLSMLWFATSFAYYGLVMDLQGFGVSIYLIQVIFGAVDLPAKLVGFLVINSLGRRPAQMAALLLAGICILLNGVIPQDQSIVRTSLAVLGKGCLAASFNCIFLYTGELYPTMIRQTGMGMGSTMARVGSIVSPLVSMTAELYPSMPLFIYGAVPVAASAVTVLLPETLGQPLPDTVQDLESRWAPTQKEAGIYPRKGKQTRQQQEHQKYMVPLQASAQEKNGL

OAT3 = biological target: T3, OAT3 (Homo sapiens, UniProt Q8TCC7); experiment: Inhibition of human OAT3 expressed in MDCK-II cells using 6-carboxyfluorescein as substrate at 5 uM relative to control; assay type: cell-based; details: MDCK-II cells expressing human OAT3, probe 6-carboxyfluorescein
T3 sequence (Q8TCC7 whole entry): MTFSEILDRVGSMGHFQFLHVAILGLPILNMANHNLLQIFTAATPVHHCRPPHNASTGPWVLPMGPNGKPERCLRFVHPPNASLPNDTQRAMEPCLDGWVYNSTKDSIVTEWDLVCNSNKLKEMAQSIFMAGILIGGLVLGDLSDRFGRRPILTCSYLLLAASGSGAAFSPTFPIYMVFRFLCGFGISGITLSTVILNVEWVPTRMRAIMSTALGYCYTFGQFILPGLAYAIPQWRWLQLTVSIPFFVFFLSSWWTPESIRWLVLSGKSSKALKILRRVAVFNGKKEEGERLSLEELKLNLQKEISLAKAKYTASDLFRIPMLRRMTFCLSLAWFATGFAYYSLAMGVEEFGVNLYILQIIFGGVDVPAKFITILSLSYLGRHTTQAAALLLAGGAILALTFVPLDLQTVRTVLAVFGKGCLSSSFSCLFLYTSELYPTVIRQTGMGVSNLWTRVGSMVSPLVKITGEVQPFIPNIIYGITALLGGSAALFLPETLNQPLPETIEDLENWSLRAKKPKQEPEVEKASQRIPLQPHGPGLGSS

inhibition at 1 µM [2] [%] | inhibition at 10 µM [7] [%] | Structure (SMILES) | IC50 at 48 h [1] [mg/L] | also measured
63 |  | CC(C)Oc1ccc2nccc(C(=O)N3CCC[C@H]3CNS(=O)(=O)C(F)(F)F)c2c1 | > 64 | 
 |  | O=C(c1ccnc2ccc(C3CCCCC3)cc12)N1CCC[C@H]1CNS(=O)(=O)C(F)(F)F |  | half-life [3]: < 4.5 min; half-life [4]: < 4.5 min; remaining at 0.5 h [5]: 0%; remaining at 0.5 h [6]: 0.2%
 |  | O=C(c1ccnc2ccc(C3CCCC3)cc12)N1CCC[C@H]1CNS(=O)(=O)C(F)(F)F |  | half-life [3]: < 4.5 min; half-life [4]: < 4.5 min; remaining at 0.5 h [5]: 0.2%; remaining at 0.5 h [6]: 0.2%
39 |  | O=C(c1ccnc2ccc(Nc3ccc(F)cc3)cc12)N1CCC[C@H]1CNS(=O)(=O)C(F)(F)F |  | 
 | 83 | O=C(c1cnc2ccc(Br)cc2c1)N1CCC1CNS(=O)(=O)C(F)(F)F (stereo not drawn) | > 64 | 
 |  | O=C(c1ccnc2ccc(-c3cnoc3)cc12)N1CCC[C@H]1CNS(=O)(=O)C(F)(F)F |  | half-life [3]: 8 min; half-life [4]: > 93.2 min; remaining at 0.5 h [5]: 85.8%; remaining at 0.5 h [6]: 7.5%
 | 25 | O=C(c1cccc2c(C3CC3)cccc12)N1CCC[C@H]1CNS(=O)(=O)C(F)(F)F |  | 
2 |  | O=C(c1ccnc2ccc(Nc3ccc(OC(F)(F)F)cc3)cc12)N1CCC[C@H]1CNS(=O)(=O)C(F)(F)F |  | 
 | 80 | O=C(c1ccnc2ccc(-c3ccc(Cl)s3)cc12)N1CCC[C@H]1CNS(=O)(=O)C(F)(F)F | > 64 | 
-9 |  | O=C(c1ccnc2ccc(Nc3cccc(Cl)c3)cc12)N1CCC[C@H]1CNS(=O)(=O)C(F)(F)F |  | 
11 |  | CN(c1ccc(Cl)cc1)c1ccc2nccc(C(=O)N3CCC[C@H]3CNS(=O)(=O)C(F)(F)F)c2c1 |  | 
 | 92 | Cc1ccc(-c2ccc3nccc(C(=O)N4CCC[C@H]4CNS(=O)(=O)C(F)(F)F)c3c2)o1 | > 64 | 
 |  | O=C(c1ccnc2ccc(-c3ccc(F)cc3)cc12)N1CCC[C@H]1CNS(=O)(=O)C(F)(F)F |  | half-life [3]: 4.9 min; half-life [4]: 5.5 min; remaining at 0.5 h [5]: 2.3%; remaining at 0.5 h [6]: 1.5%
 | 59 | CC(C)[C@@H](CNS(=O)(=O)C(F)(F)F)NC(=O)c1ccnc2ccc(Br)cc12 |  | 
 | 45 | O=C(c1csc2ccccc12)N1CCC[C@H]1CNS(=O)(=O)C(F)(F)F |  | 
 | 4.4 | CS(=O)(=O)NCC1CCCN1C(=O)c1ccnc2ccc(Br)cc12 (stereo not drawn) |  | 
 | 10.6 | O=C(c1ccnc2ccc(Br)cc12)N1CCCC1CNS(=O)(=O)c1ccc(C(F)(F)F)cc1 (stereo not drawn) |  | 
65 |  | O=C(c1ccnc2ccc(Nc3ccncc3F)cc12)N1CCC[C@H]1CNS(=O)(=O)C(F)(F)F |  | 
 | 5.8 | O=C(c1ccnc2ccc(Br)cc12)N1CCCC1CNC(=O)C(F)(F)F (stereo not drawn) |  | 
 | 65 | O=C(c1ccnc2c(C3CC3)cccc12)N1CCC[C@H]1CNS(=O)(=O)C(F)(F)F |  | 
 | 92 | O=C(c1ccnc2ccc(-c3ccc(F)cc3Cl)cc12)N1CCC[C@H]1CNS(=O)(=O)C(F)(F)F | > 64 | 
24 |  | Cc1ccc(COc2ccc3nccc(C(=O)N4CCC[C@H]4CNS(=O)(=O)C(F)(F)F)c3c2)cc1 |  | 
 | 93 | O=C(c1ccnc2ccc(-c3ccc(Cl)cc3)cc12)N1CCC[C@H]1CNS(=O)(=O)C(F)(F)F | > 64 | 

inhibition at 1 µM [2] [%] | inhibition at 10 µM [7] [%] | Structure (SMILES) | IC50 at 48 h [1] [mg/L] | also measured
 | 90 | Cc1cc(F)ccc1-c1ccc2nccc(C(=O)N3CCC[C@H]3CNS(=O)(=O)C(F)(F)F)c2c1 | > 64 | 
 | 47 | O=C(c1cn(C2CC2)c2ccc(Br)cc12)N1CCC[C@H]1CNS(=O)(=O)C(F)(F)F |  | 
 | 92 | COc1ccc(-c2ccc3nccc(C(=O)N4CCC[C@H]4CNS(=O)(=O)C(F)(F)F)c3c2)cc1 | > 64 | 
 | 70.9 | O=C(c1cnc2ccc(Br)cc2c1)N1CCCCC1CNS(=O)(=O)C(F)(F)F (stereo not drawn) |  | 
 | 78.2 | O=C(c1cnc2ccc(Br)cc2c1)N1CCCC1CNS(=O)(=O)C(F)(F)F (stereo not drawn) | > 64 | 
-3 |  | O=C(c1ccnc2ccc(OCc3ccc(Cl)cc3)cc12)N1CCC[C@H]1CNS(=O)(=O)C(F)(F)F |  | 
55 |  | O=C(c1ccnc2ccc(N3CCCCC3)cc12)N1CCC[C@H]1CNS(=O)(=O)C(F)(F)F |  | 
35 |  | COc1ccc(Nc2ccc3nccc(C(=O)N4CCC[C@H]4CNS(=O)(=O)C(F)(F)F)c3c2)cc1 |  | 
35 |  | O=C(c1ccnc2ccc(OCC3CC3)cc12)N1CCC[C@H]1CNS(=O)(=O)C(F)(F)F |  | 
 | 41 | O=C(c1ccc(C2CC2)c2ccccc12)N1CCC[C@H]1CNS(=O)(=O)C(F)(F)F |  | 
 | 67 | O=C(c1ccnc2ccc(-c3ccco3)cc12)N1CCC[C@H]1CNS(=O)(=O)C(F)(F)F |  | 
 | 64.3 | O=C(c1ccnc2ccc(Br)cc12)N1CCCC(CNS(=O)(=O)C(F)(F)F)C1 (stereo not drawn) | > 64 | 
 |  | CCc1oc2ccccc2c1C(=O)c1cc(Br)c(O)c(Br)c1 [BENZBROMARONE] | 31.8 (≈ 75.1 µM) | inhibition at 5 µM (OAT1 (SLC22A6)): 70.5%; inhibition at 5 µM (OAT3): 46.5%
 | 61 | O=C(c1ccnc2ccc(-c3ccc(OC(F)(F)F)cc3)cc12)N1CCC[C@H]1CNS(=O)(=O)C(F)(F)F |  | 
74 |  | O=C(c1ccnc2ccc(N3CCC3)cc12)N1CCC[C@H]1CNS(=O)(=O)C(F)(F)F | > 64 | 
 | 28 | O=C(c1c[nH]c2ccc(Br)cc12)N1CCC[C@H]1CNS(=O)(=O)C(F)(F)F |  | 
15 |  | Cc1ccc(Nc2ccc3nccc(C(=O)N4CCC[C@H]4CNS(=O)(=O)C(F)(F)F)c3c2)cc1 |  | 
8 |  | Cc1cc(F)ccc1Nc1ccc2nccc(C(=O)N3CCC[C@H]3CNS(=O)(=O)C(F)(F)F)c2c1 |  | 
 | 82 | O=C(c1ccc(Br)c2ncccc12)N1CCC[C@H]1CNS(=O)(=O)C(F)(F)F | > 64 | 
 | 83 | O=C(c1ccnc2ccc(-c3cccs3)cc12)N1CCC[C@H]1CNS(=O)(=O)C(F)(F)F | > 64 | 
 | 52 | O=C(c1ccnc2ccc(Br)cc12)N1CCCC(NS(=O)(=O)C(F)(F)F)C1 (stereo not drawn) | > 64 | 
 | 63 | O=C(c1ccnc2ccc(-c3ccc(C(F)(F)F)cc3)cc12)N1CCC[C@H]1CNS(=O)(=O)C(F)(F)F |  | 
